This note sets out measurements from ChEMBL document CHEMBL1201862, “PubChem BioAssay data set” (2004).

Some test systems named below: A549; CCRF-CEM; HCT-116; HOP-62; HT-29; M14; MCF7; MOLT-4; NCI-H522; NCI/ADR-RES; OVCAR-4; OVCAR-5; RXF 393; SF-295; SK-MEL-5; SK-OV-3; SNB-19; SW-620; T47D; UACC-257.
Assay in all cases: inhibition of tumour cell growth, NCI panel, 48 h

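Test compounds were applied to cells in 96-well plates for 48 hours at 5 doses. Abbreviation: GI50, concentration required for 50% inhibition of growth.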 Activity calls are given as the source filed them. Rule as the data show it: active = GI50 up to about 1.1 µM and inactive = higher. Bounds are passed on as bounds.

On to `N#C/C(=C(\O)C(=O)O)c1ccc(-c2cccc3ccccc23)cc1`, for which the GI50 with A549 is > 100 µM (inactive); in the test with CCRF-CEM, 14.1 µM (inactive); in the test on HCT-116, > 100 µM (inactive); in the test with HOP-62 it was > 100 µM (inactive); in the test on HT-29, > 100 µM (inactive); in the test on M14 it was > 100 µM (inactive). Besides, the GI50 in the test with MCF7 is > 100 µM (inactive); with MOLT-4 it was 1.51 µM (inactive); with NCI-H522, > 100 µM (inactive); with NCI/ADR-RES it was > 100 µM (inactive); in the test with OVCAR-4, > 100 µM (inactive); in the test with OVCAR-5 it was > 100 µM (inactive). The GI50 in the test with RXF 393, in the test with SF-295, in the test with SK-MEL-5, with SK-OV-3, with SNB-19 and in the test on SW-620 was > 100 µM (inactive) throughout. Moreover, the GI50 in the test on T47D and in the test on UACC-257 was > 100 µM (inactive) throughout.

On to `COC(=O)c1ccc(NCc2cc(O)ccc2O)cc1`, for which the GI50 in the test with A549 is 14.5 µM (inactive); in the test with CCRF-CEM, 1.51 µM (inactive); in the test on HCT-116 it was 17.4 µM (inactive); in the test on HOP-62, 15.9 µM (inactive); with HT-29, 23.1 µM (inactive); with M14 it was 18 µM (inactive). Moreover, the GI50 is 6.21 µM (inactive) in the test with MCF7; 3.19 µM (inactive) in the test on MOLT-4; 0.841 µM (active) with NCI-H522; 3.08 µM (inactive) in the test on NCI/ADR-RES; 11.5 µM (inactive) with OVCAR-4; 15 µM (inactive) in the test on OVCAR-5. Moreover, the GI50 was 6.73 µM (inactive) with RXF 393; 18.2 µM (inactive) with SF-295; 9.71 µM (inactive) with SK-MEL-5; 14 µM (inactive) in the test on SK-OV-3; 22.7 µM (inactive) in the test with SNB-19; 9.18 µM (inactive) in the test with SW-620. Also, the GI50 is 1.65 µM (inactive) in the test on T47D and 14.4 µM (inactive) in the test on UACC-257.

With `NS(=O)(=O)c1ccc(NCc2cnc3ccccc3n2)cc1`, the GI50 in the test on A549, in the test with CCRF-CEM, with HCT-116, in the test with HOP-62, in the test on HT-29 and in the test with M14 was > 100 µM (inactive) throughout. In addition, the GI50 in the test with MCF7, in the test with MOLT-4, with NCI-H522, in the test with NCI/ADR-RES, in the test with OVCAR-4 and with OVCAR-5 was > 100 µM (inactive) in each case. Also, the GI50 in the test with RXF 393, in the test with SF-295, with SK-MEL-5, in the test with SK-OV-3, with SNB-19 and in the test with SW-620 was > 100 µM (inactive) each time. Also, the GI50 in the test with T47D and in the test on UACC-257 was > 100 µM (inactive) each time.

Turning to `CC(SCc1ccccc1)C(=O)O` (stereo not given), the GI50 with A549, with CCRF-CEM, in the test on HCT-116, with HOP-62, in the test with HT-29 and with M14 was > 100 µM (inactive) in each case. Also, the GI50 in the test on MCF7, with MOLT-4, with NCI-H522, in the test with NCI/ADR-RES, in the test with OVCAR-4 and with OVCAR-5 was > 100 µM (inactive) in each case. In addition, the GI50 in the test on RXF 393, in the test with SF-295, with SK-MEL-5, with SK-OV-3, in the test with SNB-19 and with SW-620 was > 100 µM (inactive) in each case. The GI50 with T47D and in the test with UACC-257 was > 100 µM (inactive) each time.

`C1CC2CN(CCCN3CCOCC3)C(C1)O2` (stereo not given): the GI50 in the test with A549, in the test with HCT-116, with HOP-62, with HT-29, with M14 and in the test with MCF7 was > 100 µM (inactive) each time. The GI50 in the test with MOLT-4, with NCI-H522, with NCI/ADR-RES, in the test with OVCAR-4, in the test with OVCAR-5 and in the test with RXF 393 was > 100 µM (inactive) throughout. The GI50 in the test on SF-295, in the test on SK-MEL-5, with SK-OV-3, in the test on SNB-19, in the test with SW-620 and in the test on T47D was > 100 µM (inactive) in each case. In addition, the GI50 in the test with UACC-257 is > 100 µM (inactive).

Turning to `O=C1C=CC(=O)c2c1c1c(c3c2C2c4ccccc4C3c3ccccc32)C2c3ccccc3C1c1ccccc12`, the GI50 with A549 was 8.69 µM (inactive); in the test with CCRF-CEM it was 0.368 µM (active); in the test on HCT-116, 1.56 µM (inactive); in the test with HOP-62, 19.5 µM (inactive); with HT-29, 2.11 µM (inactive); in the test with M14, 1.7 µM (inactive). Moreover, the GI50 in the test on MCF7 is 1.27 µM (inactive); with MOLT-4, 0.836 µM (active); in the test with NCI-H522 it was 0.515 µM (active); in the test with NCI/ADR-RES, 5.04 µM (inactive); in the test with OVCAR-4, 2.04 µM (inactive); in the test with OVCAR-5, 6.55 µM (inactive). In addition, the GI50 with RXF 393 was 1.59 µM (inactive); with SF-295, 14.9 µM (inactive); in the test with SK-MEL-5, 3.3 µM (inactive); with SK-OV-3 it was 15 µM (inactive); in the test with SNB-19, 16.2 µM (inactive); with SW-620 it was 0.914 µM (active). For the same compound, the GI50 with T47D is 1.41 µM (inactive); in the test on UACC-257 it was 1.85 µM (inactive).

As to `O=C(c1ccc(Cl)c(Cl)c1)N(C(=O)N1CCN(c2ccccc2)CC1)S(=O)(=O)c1ccccc1`, the GI50 in the test with A549 is > 100 µM (inactive); in the test with CCRF-CEM it was 19 µM (inactive); with HCT-116, 29.8 µM (inactive); in the test on HOP-62, 31.6 µM (inactive); in the test on HT-29, 46.7 µM (inactive); in the test with M14 it was 37.2 µM (inactive). Besides, the GI50 in the test on MCF7 was 36.1 µM (inactive); with MOLT-4, 12.9 µM (inactive); with NCI-H522 it was 19 µM (inactive); in the test with NCI/ADR-RES it was 34 µM (inactive); in the test with OVCAR-4, 24.2 µM (inactive); in the test on OVCAR-5 it was 26.9 µM (inactive). The GI50 was > 100 µM (inactive) in the test with RXF 393; 49.4 µM (inactive) with SF-295; 28.2 µM (inactive) in the test with SK-MEL-5; 27 µM (inactive) with SK-OV-3; 36.6 µM (inactive) in the test on SNB-19; 36.1 µM (inactive) with SW-620. Further, the GI50 in the test on T47D and in the test with UACC-257 was > 100 µM (inactive) each time.

For the compound `Nc1nc2c(C(=O)O)c3ccc([N+](=O)[O-])cc3c(=O)n2c2ccccc12`, the GI50 was 26.2 µM (inactive) in the test on A549; 42.1 µM (inactive) in the test with CCRF-CEM; 16.9 µM (inactive) in the test with HCT-116; 22.5 µM (inactive) with HOP-62; 34.7 µM (inactive) in the test on HT-29; 21.4 µM (inactive) with M14. In addition, the GI50 with MCF7 is 16.2 µM (inactive); in the test on MOLT-4, 14.4 µM (inactive); in the test on NCI-H522, 19.9 µM (inactive); in the test with NCI/ADR-RES, 20.5 µM (inactive); with OVCAR-4, 31 µM (inactive); in the test on OVCAR-5, 31 µM (inactive). Also, the GI50 with RXF 393 is 14.5 µM (inactive); with SF-295, 29.1 µM (inactive); in the test on SK-MEL-5, 24.7 µM (inactive); in the test on SK-OV-3, 21 µM (inactive); with SNB-19 it was 28.5 µM (inactive); in the test with SW-620, 39 µM (inactive). Besides, the GI50 in the test with T47D is 20.4 µM (inactive).

For the compound `CC(=O)SCCC(NC(=S)Nc1ccccc1)P(=O)(Oc1ccccc1)Oc1ccccc1` (stereo not given), the GI50 in the test with A549, with CCRF-CEM, in the test on HCT-116, in the test with HOP-62, with HT-29 and with M14 was > 100 µM (inactive) each time. In addition, the GI50 in the test on MCF7, in the test with MOLT-4, with NCI-H522, in the test with NCI/ADR-RES, with OVCAR-4 and in the test with OVCAR-5 was > 100 µM (inactive) each time. The GI50 with RXF 393, in the test with SF-295, with SK-OV-3, in the test on SNB-19, in the test with SW-620 and with T47D was > 100 µM (inactive) in each case. In addition, the GI50 with UACC-257 was > 100 µM (inactive).

Turning to `CN1CCN(Cc2cc3c(nn2)-c2ccccc2C3=O)CC1`, the GI50 is > 100 µM (inactive) in the test on A549; 54.6 µM (inactive) in the test with CCRF-CEM; 30.4 µM (inactive) with HCT-116; 53 µM (inactive) in the test on HT-29; 31.2 µM (inactive) in the test with M14; 30.8 µM (inactive) in the test with MCF7. Besides, the GI50 with MOLT-4 is 38.7 µM (inactive); in the test with NCI-H522, 14.3 µM (inactive); in the test on NCI/ADR-RES, 50.1 µM (inactive); in the test with OVCAR-5, > 100 µM (inactive); with RXF 393 it was > 100 µM (inactive); in the test on SF-295, > 100 µM (inactive). For the same compound, the GI50 is 16.9 µM (inactive) in the test on SK-MEL-5; > 100 µM (inactive) in the test on SK-OV-3; 43.5 µM (inactive) in the test on SNB-19; 52.7 µM (inactive) in the test on SW-620; 49 µM (inactive) in the test on T47D; 19.2 µM (inactive) with UACC-257.
